The values that follow come from patent publication US20240268388A1, “AGRICULTURAL AND HORTICULTURAL FUNGICIDAL COMPOSITION” (NIPPON SODA CO., LTD., priority 2021, published 2024).

The term inhibition denotes the share of the control response that was lost under treatment.

Assay [1] has as its system wheat leaf blight pathogen (Septoria tritici). Put plainly: Fungicidal test for wheat leaf blight (microplate, turbidity at 405 nm). Type of assay: cell-based. As for the experimental part:
Compounds of component (I) and component (II) were dissolved in dimethyl sulfoxide at 10,000 ppm and diluted with water to the prescribed concentration to prepare a chemical agent solution. A mixture of the prescribed concentration of the chemical agent solution, wheat leaf blight pathogen (Septoria tritici) conidia, and malt extract was prepared on a microplate and incubated at 20° C. in the dark for 3 days. The turbidity at a wavelength of 405 nm was measured with a microplate reader, and the growth of wheat leaf blight pathogen was compared with that of no treatment control to determine the growth inhibition rate. The results are shown in Tables 2 to 7, along with the expected values calculated as below.
Each expected value was calculated from the fungicidal efficacy of a single application of the compound of component (I) and the fungicidal efficacy of a single application of compound of component (II) by using Colby's equation (S. R. Colby, Calculating synergistic and antagonistic responses of herbicide combinations, Weeds, 15, 20-22 pp (1967)).
[formula] • where E represents the expected value of the growth inhibition rate (%) for the composition containing component (I) and component (II), M represents the growth inhibition rate (%) when the component (I) is used alone, and N represents the growth inhibition rate (%) when the component (II) is used alone. When the measured growth inhibition rate (%) for the composition containing component (I) and component (II) is greater than the expected value E, the composition containing components (I) and component (II) should exert a synergistic effect.

The subject of assay [2] is soybean rust pathogen (Phakopsora pachyrhizi). Put plainly: Soybean rust control test (leaf discs). It counts as in vivo. As for the experimental part: Compounds of component (I) and component (II) were dissolved in dimethyl sulfoxide and diluted with water to the prescribed concentration to prepare a chemical agent solution. A mixture of the prescribed concentration of the chemical agent solution and sterile water was prepared on a microplate, and leaf discs cut from soybean leaves were floated on the microplate. Uredospores of soybean rust pathogen (Phakopsora pachyrhizi) were inoculated and incubated at 25° C. for 9 days. The area percentage of lesions was determined by observing uredospore-forming lesions on the leaf discs, and the control value was calculated. The control value was calculated by the following formula:
Control value (%)=100−{Area percentage of lesions in treatment plot/Area percentage of lesions in untreatment plot}×100.
The results are shown in Tables 8 to 18, along with the expected values calculated as below. Each expected values was calculated from the fungicidal efficacy of a single application of compound of component (I) and the fungicidal efficacy of a single application of compound of component (II) by using Colby's equation:
[formula] • where E represents the expected value of the control value for the composition containing component (I) and component (II), M represents the control value (%) when the component (I) is used alone, and N represents the control value (%) when the component (II) is used alone. When the measured control value for the composition containing component (I) and component (II) is greater than the expected value E, the composition containing component (I) and composition (II) should exert a synergistic effect.

Setting [3] is: Zymoseptoria tritici, component (II) alone, read-out: growth inhibition rate.
[4] abbreviates: Zymoseptoria tritici, component (II) alone, 1 ppm, read-out: growth inhibition rate.
Where [5] appears, read: Table 15, component (II) alone (component (I): None): Azoxystrobin 0.0001, Inpyrfluxam 0.000025, Chlorothalonil 0.0063, Difenoconazole 0.000025, Cyproconazole 0.000025, Tebuconazole 0.000025, Trifloxystrobin 0.0001, Pyraclostrobin 0.0001, Fluazinam 0.0063, Fluxapyroxad 0.000025, Prothioconazole 0.000025, Florylpicoxamid 0.0001, Benzovindiflupyr 0.000025, Mancozeb 0.0063 ppm.

[6] abbreviates: Table 18, component (II) alone (component (I): None): Azoxystrobin 0.0001, Inpyrfluxam 0.000025, Chlorothalonil 0.0063, Difenoconazole 0.000025, Cyproconazole 0.000025, Tebuconazole 0.000025, Trifloxystrobin 0.0001, Pyraclostrobin 0.0001, Fluazinam 0.0063, Fluxapyroxad 0.000025, Prothioconazole 0.000025, Florylpicoxamid 0.0001, Benzovindiflupyr 0.000025, Mancozeb 0.0063 ppm.
[7] abbreviates: Zymoseptoria tritici, component (II) alone, 0.004 ppm, read-out: growth inhibition rate.
[8] abbreviates: Table 14, component (II) alone (component (I): None): Inpyrfluxam 0.00025, Chlorothalonil 0.006, Thiophanate-methyl 0.0001, Tebuconazole 0.000025, Trifloxystrobin 0.0001, Fluazinam 0.006, Prothioconazole 0.000025, Florylpicoxamid 0.0001, Metominostrobin 0.0004 ppm.
[9] abbreviates: Table 16, component (II) alone (component (I): None): Inpyrfluxam 0.000025, Chlorothalonil 0.006, Thiophanate-methyl 0.0001, Tebuconazole 0.000025, Trifloxystrobin 0.0001, Fluazinam 0.006, Prothioconazole 0.000025, Florylpicoxamid 0.0001, Metominostrobin 0.0004 ppm.
[10] abbreviates: Table 17, component (II) alone (component (I): None): Inpyrfluxam 0.000026, Chlorothalonil 0.02, Thiophanate-methyl 0.0004, Tebuconazole 0.0001, Trifloxystrobin 0.0001, Fluazinam 0.006, Prothioconazole 0.000025, Florylpicoxamid 0.0001, Metominostrobin 0.0004 ppm.
[11] abbreviates: Zymoseptoria tritici, component (II) alone, 0.02 ppm, read-out: growth inhibition rate.

On to `O=C(Cc1ccc(-c2noc(C(F)(F)F)n2)cc1)N1CC(=NOCC(F)F)C1` [Compound 4], for which the inhibition at 6.3 ppm in assay [1] (Zymoseptoria tritici, component (I) alone, 6.3 ppm, read-out: growth inhibition rate) came out at 36%. For the same compound, in assay [1] (Zymoseptoria tritici, component (I) alone, 12.5 ppm, read-out: growth inhibition rate), the inhibition at 12.5 ppm worked out at 49%. For the same compound, in assay [1] (Zymoseptoria tritici, component (I) alone, 25 ppm, read-out: growth inhibition rate), the inhibition at 25 ppm stood at 75%. Moreover, in assay [1] (Zymoseptoria tritici, component (I) alone, 50 ppm, read-out: growth inhibition rate), the inhibition at 50 ppm came out at 99%. In assay [1] (Zymoseptoria tritici, component (I) alone, 100 ppm, read-out: growth inhibition rate), the inhibition at 100 ppm is 100%. Moreover, the control value in assay [2] (component (I) alone, 0.0063 ppm) is recorded as 18%; in assay [2] (component (I) alone, 0.025 ppm), 28%; in assay [2] (component (I) alone, 0.1 ppm), 67%; in assay [2] (component (I) alone, 0.4 ppm), 97%.
On to `CC(C1CC1)C(O)(Cn1cncn1)c1ccc(Cl)cc1` (centres unmarked) [Cyproconazole, cyproconazole, reference compound], for which the inhibition at 0.25 ppm in assay [1] (setting [3]) was found to be 15%. The inhibition at 1 ppm in assay [1] (setting [4]) was 1%. Moreover, the control value in assay [2] (setting [5]) is recorded as 33%; in assay [2] (setting [6]), 0%; in assay [2] (component (II) alone, 0.0001 ppm), 88%.
Consider `CC1COC(Cn2cncn2)(c2ccc(Oc3ccc(Cl)cc3)cc2Cl)O1` (centres unmarked) [Difenoconazole, difenoconazole], for which the inhibition at 0.004 ppm in assay [1] (setting [7]) turned out to be 75%. Moreover, in assay [1] (Zymoseptoria tritici, component (II) alone, 0.04 ppm, read-out: growth inhibition rate), the inhibition at 0.04 ppm worked out at 75%. Further, in assay [1] (Zymoseptoria tritici, component (II) alone, 4 ppm, read-out: growth inhibition rate), the inhibition at 4 ppm came to 85%. For the same compound, in assay [1] (Zymoseptoria tritici, component (II) alone, 16 ppm, read-out: growth inhibition rate), the inhibition at 16 ppm was determined as 83%. Besides, the inhibition at 0.0002 ppm in assay [1] (Zymoseptoria tritici, component (II) alone, .0002 ppm (also printed 0002), read-out: growth inhibition rate) was determined as 69%. Further, the control value stood at 75% in assay [2] (setting [5]) and 0% in assay [2] (setting [6]).
Regarding `O=[N+]([O-])c1cc(C(F)(F)F)c(Cl)c([N+](=O)[O-])c1Nc1ncc(C(F)(F)F)cc1Cl` [Fluazinam, fluazinam, reference compound], the inhibition at 0.004 ppm in assay [1] (setting [7]) stood at 0%. The control value was 16% in assay [2] (setting [8]); 0% in assay [2] (setting [5]); 16% in assay [2] (setting [9]); 16% in assay [2] (setting [10]); 50% in assay [2] (setting [6]).
With `Cn1cc(C(=O)Nc2ccccc2-c2cc(F)c(F)c(F)c2)c(C(F)F)n1` [Fluxapyroxad, fluxapyroxad], the growth inhibition rate in assay [1] (component (II) alone, 0.001 ppm) worked out at 32%; in assay [1] (component (II) alone, 0.02 ppm), 63%; in assay [1] (component (II) alone, 1 ppm), 86%. Moreover, the control value is given as 0% in assay [2] (setting [5]) and 75% in assay [2] (setting [6]).
Take `OC(Cc1ccccc1Cl)(Cn1nc[nH]c1=S)C1(Cl)CC1` (centres unmarked) [Prothioconazole, prothioconazole, reference compound]: the inhibition at 0.02 ppm in assay [1] (setting [11]) was found to be 10%. In assay [1] (setting [3]), the inhibition at 0.25 ppm came to 7%. In addition, the inhibition at 1 ppm in assay [1] (setting [4]) stood at 8%. Moreover, the control value in assay [2] (setting [8]) was 44%; in assay [2] (setting [5]), 33%; in assay [2] (setting [9]), 44%; in assay [2] (setting [10]) it was 44%; in assay [2] (setting [6]), 50%.
Take `COC(=O)N(OC)c1ccccc1COc1ccn(-c2ccc(Cl)cc2)n1` [Pyraclostrobin, pyraclostrobin, reference compound]: the inhibition at 0.02 ppm in assay [1] (setting [11]) was determined as 24%. For the same compound, the inhibition at 0.25 ppm in assay [1] (setting [3]) was found to be 86%. Besides, the values for the control value in assay [2] (setting [5]) and in assay [2] (setting [6]) were 33% and 0%, respectively.
For `CC(C)(C)C(O)(CCc1ccc(Cl)cc1)Cn1cncn1` (centres unmarked) [Tebuconazole, tebuconazole, reference compound], in assay [1] (Zymoseptoria tritici, component (II) alone, 0.016 ppm, read-out: growth inhibition rate), the inhibition at 0.016 ppm turned out to be 0%. In addition, in assay [1] (Zymoseptoria tritici, component (II) alone, 0.063 ppm, read-out: growth inhibition rate), the inhibition at 0.063 ppm was 33%. Besides, the inhibition at 64 ppm in assay [1] (Zymoseptoria tritici, component (II) alone, 64 ppm, read-out: growth inhibition rate) stood at 76%. For the same compound, the control value in assay [2] (setting [8]) came to 44%; in assay [2] (setting [5]) it was 33%; in assay [2] (setting [9]) it was 44%; in assay [2] (setting [10]), 86%; in assay [2] (setting [6]) it was 33%.
In the case of `CON=C(C(=O)OC)c1ccccc1CON=C(C)c1cccc(C(F)(F)F)c1` [Trifloxystrobin, trifloxystrobin, reference compound], the inhibition at 0.25 ppm in assay [1] (setting [3]) was 21%. The control value is 16% in assay [2] (setting [8]); 0% in assay [2] (setting [5]); 16% in assay [2] (setting [9]); 16% in assay [2] (setting [10]); 75% in assay [2] (setting [6]); 50% in assay [2] (component (II) alone, 0.0004 ppm).
For the compound inpyrfluxam [reference compound], the growth inhibition rate in assay [1] (component (II) alone, 0.01 ppm) was determined as 24%; in assay [1] (component (II) alone, 0.04 ppm), 49%. Further, the control value in assay [2] (setting [8]) is 16%; in assay [2] (setting [5]), 50%; in assay [2] (setting [9]), 16%; in assay [2] (setting [10]), 16%; in assay [2] (setting [6]), 50%.
Consider mancozeb, for which the growth inhibition rate in assay [1] (component (II) alone, 0.004 ppm) was determined as 9%; in assay [1] (component (II) alone, 0.02 ppm), 19%; in assay [1] (component (II) alone, 0.06 ppm) it was 19%. For the same compound, the control value in assay [2] (setting [5]) and in assay [2] (setting [6]) was 0% in each case.
